From ChEMBL document CHEMBL3991601, “The target landscape of clinical kinase drugs” (Science, 2017)
The source made the active and inactive calls. Rule as the data show it, for most assays here: actives have a measured Kd and inactives only a lower limit.

Assays:
[1] = biological target: Tyrosine-protein kinase HCK (Homo sapiens, UniProt P08631)
[2] = biological target: Receptor-interacting serine/threonine-protein kinase 2 (Homo sapiens, UniProt O43353)
[3] = biological target: T1, Serine/threonine-protein kinase D3 (Homo sapiens, UniProt O94806)
T1 sequence (O94806 whole entry): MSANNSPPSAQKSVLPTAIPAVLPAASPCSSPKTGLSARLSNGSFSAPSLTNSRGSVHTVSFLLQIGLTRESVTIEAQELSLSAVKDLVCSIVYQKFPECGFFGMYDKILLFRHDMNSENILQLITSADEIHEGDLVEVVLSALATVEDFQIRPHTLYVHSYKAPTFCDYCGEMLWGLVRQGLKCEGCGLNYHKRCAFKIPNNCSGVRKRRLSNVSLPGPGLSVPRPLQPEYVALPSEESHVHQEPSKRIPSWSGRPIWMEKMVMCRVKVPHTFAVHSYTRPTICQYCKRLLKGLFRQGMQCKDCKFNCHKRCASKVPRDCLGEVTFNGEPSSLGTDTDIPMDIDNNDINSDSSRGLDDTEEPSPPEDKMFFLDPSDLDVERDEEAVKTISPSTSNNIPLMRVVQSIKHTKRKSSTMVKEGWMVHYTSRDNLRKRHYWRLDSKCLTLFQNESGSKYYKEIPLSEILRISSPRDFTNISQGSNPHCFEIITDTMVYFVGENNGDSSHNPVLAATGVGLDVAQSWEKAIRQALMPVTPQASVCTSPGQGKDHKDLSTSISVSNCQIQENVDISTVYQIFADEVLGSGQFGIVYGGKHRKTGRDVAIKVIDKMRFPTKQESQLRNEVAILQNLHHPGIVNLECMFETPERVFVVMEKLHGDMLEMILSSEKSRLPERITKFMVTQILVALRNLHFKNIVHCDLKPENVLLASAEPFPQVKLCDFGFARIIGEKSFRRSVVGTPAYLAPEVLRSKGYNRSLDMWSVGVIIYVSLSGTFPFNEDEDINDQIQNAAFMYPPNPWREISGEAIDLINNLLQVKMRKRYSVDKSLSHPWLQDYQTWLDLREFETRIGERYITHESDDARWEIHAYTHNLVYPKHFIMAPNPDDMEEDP

[4] = biological target: T2, Serine/threonine-protein kinase 3 (Homo sapiens, UniProt Q13188)
T2 sequence (Q13188 whole entry): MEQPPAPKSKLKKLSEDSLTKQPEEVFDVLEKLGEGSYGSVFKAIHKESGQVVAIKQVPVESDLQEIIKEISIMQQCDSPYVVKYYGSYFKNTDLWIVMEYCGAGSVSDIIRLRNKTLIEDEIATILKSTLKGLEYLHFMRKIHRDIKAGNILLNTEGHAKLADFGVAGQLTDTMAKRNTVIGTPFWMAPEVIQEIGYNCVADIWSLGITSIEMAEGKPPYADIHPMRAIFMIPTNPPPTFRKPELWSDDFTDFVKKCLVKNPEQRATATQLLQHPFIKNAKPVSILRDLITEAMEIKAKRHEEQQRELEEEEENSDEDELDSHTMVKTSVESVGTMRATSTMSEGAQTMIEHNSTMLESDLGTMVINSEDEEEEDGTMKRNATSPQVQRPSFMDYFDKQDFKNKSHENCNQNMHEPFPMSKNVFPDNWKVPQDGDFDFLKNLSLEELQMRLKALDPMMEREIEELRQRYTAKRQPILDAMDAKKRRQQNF

[5] = biological target: T3, Thyroid hormone receptor-associated protein 3 (Homo sapiens, UniProt Q9Y2W1)
T3 sequence (Q9Y2W1 whole entry): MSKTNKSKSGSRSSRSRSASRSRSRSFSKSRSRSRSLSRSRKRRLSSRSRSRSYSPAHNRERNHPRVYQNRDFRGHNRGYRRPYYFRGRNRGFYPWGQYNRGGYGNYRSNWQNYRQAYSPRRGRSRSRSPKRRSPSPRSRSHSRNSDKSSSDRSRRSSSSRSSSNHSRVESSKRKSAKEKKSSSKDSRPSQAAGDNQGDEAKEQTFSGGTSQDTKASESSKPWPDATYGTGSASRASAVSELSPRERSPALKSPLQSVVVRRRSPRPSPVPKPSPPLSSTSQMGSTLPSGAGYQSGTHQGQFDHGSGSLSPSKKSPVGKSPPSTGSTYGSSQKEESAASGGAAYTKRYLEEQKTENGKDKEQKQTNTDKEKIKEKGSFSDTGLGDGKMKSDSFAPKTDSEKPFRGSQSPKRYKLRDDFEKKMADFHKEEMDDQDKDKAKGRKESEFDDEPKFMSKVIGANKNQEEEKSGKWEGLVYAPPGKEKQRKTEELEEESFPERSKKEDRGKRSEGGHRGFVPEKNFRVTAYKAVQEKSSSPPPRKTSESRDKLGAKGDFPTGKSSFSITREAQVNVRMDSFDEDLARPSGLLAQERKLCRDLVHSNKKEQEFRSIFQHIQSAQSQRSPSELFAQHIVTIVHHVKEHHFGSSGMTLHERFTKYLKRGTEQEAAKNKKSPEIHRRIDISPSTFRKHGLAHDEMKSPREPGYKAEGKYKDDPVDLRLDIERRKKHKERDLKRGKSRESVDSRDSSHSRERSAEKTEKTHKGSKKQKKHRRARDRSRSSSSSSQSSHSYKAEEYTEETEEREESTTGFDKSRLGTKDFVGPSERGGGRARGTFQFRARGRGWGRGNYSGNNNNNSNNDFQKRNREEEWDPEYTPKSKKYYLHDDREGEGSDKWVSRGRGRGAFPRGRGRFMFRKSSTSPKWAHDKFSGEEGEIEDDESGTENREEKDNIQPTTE
Also: in the data inactive means no Kd found up to 30 µM.

Tyrosine-protein kinase HCK, sequence (P08631 whole entry): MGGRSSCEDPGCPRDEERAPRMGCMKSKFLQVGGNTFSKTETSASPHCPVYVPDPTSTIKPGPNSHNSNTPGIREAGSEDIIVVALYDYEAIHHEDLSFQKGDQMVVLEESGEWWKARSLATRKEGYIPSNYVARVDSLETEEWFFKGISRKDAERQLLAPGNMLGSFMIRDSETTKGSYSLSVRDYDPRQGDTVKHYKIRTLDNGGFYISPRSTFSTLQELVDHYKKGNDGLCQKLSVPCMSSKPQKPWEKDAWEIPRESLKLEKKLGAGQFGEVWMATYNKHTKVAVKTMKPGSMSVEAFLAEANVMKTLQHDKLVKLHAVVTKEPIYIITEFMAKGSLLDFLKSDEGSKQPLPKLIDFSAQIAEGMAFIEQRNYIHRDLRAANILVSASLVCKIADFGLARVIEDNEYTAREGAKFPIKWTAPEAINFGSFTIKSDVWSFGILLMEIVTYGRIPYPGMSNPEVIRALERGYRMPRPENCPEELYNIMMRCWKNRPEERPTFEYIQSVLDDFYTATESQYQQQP
Receptor-interacting serine/threonine-protein kinase 2, sequence (O43353 whole entry): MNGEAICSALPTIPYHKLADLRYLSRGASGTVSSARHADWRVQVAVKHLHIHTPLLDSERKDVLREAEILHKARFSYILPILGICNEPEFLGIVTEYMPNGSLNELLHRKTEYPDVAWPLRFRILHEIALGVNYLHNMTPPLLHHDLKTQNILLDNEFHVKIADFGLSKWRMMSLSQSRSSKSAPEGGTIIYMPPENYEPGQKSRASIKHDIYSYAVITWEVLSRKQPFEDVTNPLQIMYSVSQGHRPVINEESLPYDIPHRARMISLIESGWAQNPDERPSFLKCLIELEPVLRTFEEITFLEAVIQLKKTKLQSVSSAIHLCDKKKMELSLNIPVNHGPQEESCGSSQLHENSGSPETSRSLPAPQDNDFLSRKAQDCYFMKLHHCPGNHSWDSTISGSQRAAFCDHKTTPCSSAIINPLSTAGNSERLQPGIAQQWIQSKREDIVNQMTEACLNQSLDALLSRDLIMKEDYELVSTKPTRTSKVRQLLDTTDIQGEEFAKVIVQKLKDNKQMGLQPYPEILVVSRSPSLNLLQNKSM

Row | Compound | Kd [1] | Kd [2] | Kd [3] | Kd [4] | Kd [5]
1 | CO[C@H]1C[C@@H]2CC[C@@H](C)[C@@](O)(O2)C(=O)C(=O)N2CCCC[C@H]2C(=O)O[C@H]([C@H](C)C[C@@H]2CC[C@@H](OP(C)(C)=O)[C@H](OC)C2)CC(=O)[C@H](C)/C=C(\C)[C@@H](O)[C@@H](OC)C(=O)[C@H](C)C[C@H](C)/C=C/C=C/C=C/1C [RIDAFOROLIMUS] | > 30 µM (inactive) | > 30 µM (inactive) | > 30 µM (inactive) | > 30 µM (inactive) | > 30 µM (inactive)
2 | COCC(=O)NC/C=C/c1ccc2ncnc(Nc3ccc(Oc4ccc(C)nc4)c(C)c3)c2c1 [CP-724714] | > 30 µM (inactive) | > 30 µM (inactive) | > 30 µM (inactive) | > 30 µM (inactive) | > 30 µM (inactive)
3 | Cc1nc(NC(=O)N2CCC[C@H]2C(N)=O)sc1-c1ccnc(C(C)(C)C(F)(F)F)c1 [ALPELISIB] | > 30 µM (inactive) | > 30 µM (inactive) | > 30 µM (inactive) | > 30 µM (inactive) | > 30 µM (inactive)
4 | CCCCCCCCCCCCCCCCCCOP(=O)([O-])OC1CC[N+](C)(C)CC1 [PERIFOSINE] | > 30 µM (inactive) | > 30 µM (inactive) | > 30 µM (inactive) | > 30 µM (inactive) | > 30 µM (inactive)
5 | C[C@H]1CNCCCN1S(=O)(=O)c1cccc2cncc(F)c12 | > 30 µM (inactive) | > 30 µM (inactive) | > 30 µM (inactive) | > 30 µM (inactive) | > 30 µM (inactive)
6 | Cc1cnc(NC(=O)Nc2cc(Br)c(C)cc2OC[C@@H]2CNCCO2)cn1 [RABUSERTIB] | > 30 µM (inactive) | > 30 µM (inactive) | > 30 µM (inactive) | > 30 µM (inactive) | > 30 µM (inactive)
7 | Cc1nc(Nc2n[nH]c3c2CN(C(=O)N[C@H](CN(C)C)c2ccccc2)C3(C)C)c2sccc2n1 [PF-03758309] | > 30 µM (inactive) | > 30 µM (inactive) | 0.268 µM (active) | 2.2 µM (active) | > 30 µM (inactive)
8 | Cc1csc(-c2nnc(Nc3ccc(Oc4ncccc4-c4ccnc(N)n4)cc3)c3ccccc23)c1 [AMG-900] | > 30 µM (inactive) | > 30 µM (inactive) | 1.91 µM (active) | > 30 µM (inactive) | 2.75 µM
9 | COCc1c(-c2ccc(NC(=O)Nc3cc(C(F)(F)F)ccc3F)c(F)c2)c2c(N)ncnn2c1CN1CCOCC1 | > 30 µM (inactive) | > 30 µM (inactive) | > 30 µM (inactive) | > 30 µM (inactive) | > 30 µM (inactive)
10 | CN1CCN(CCOc2cc(OC3CCOCC3)c3c(Nc4c(Cl)ccc5c4OCO5)ncnc3c2)CC1 [SARACATINIB] | 0.1 µM (active) | 0.002 µM (active) | > 30 µM (inactive) | > 30 µM (inactive) | > 30 µM (inactive)
11 | C=CC(=O)N1CCC[C@H](n2c(=O)n(-c3ccc(Oc4ccccc4)cc3)c3c(N)ncnc32)C1 | 0.006 µM | 0.007 µM | > 30 µM (inactive) | > 30 µM (inactive) | > 30 µM (inactive)
12 | COc1ccc(S(=O)(=O)N(C(C)=O)c2ccccc2/C=C/c2cc[n+]([O-])cc2)cc1 [HMN-214] | > 30 µM (inactive) | > 30 µM (inactive) | > 30 µM (inactive) | > 30 µM (inactive) | > 30 µM (inactive)
13 | COc1cc2c(Nc3ccc(Cl)c(Cl)c3F)ncnc2cc1OC[C@@H]1C[C@@H]2CN(C)C[C@@H]2C1 [TESEVATINIB] | 1.16 µM (active) | 0.033 µM (active) | > 30 µM (inactive) | > 30 µM (inactive) | > 30 µM (inactive)
14 | CO[C@H]1C[C@@H]2CC[C@@H](C)[C@@](O)(O2)C(=O)C(=O)N2CCCC[C@H]2C(=O)O[C@H]([C@H](C)C[C@@H]2CC[C@@H](OC(=O)C(C)(CO)CO)[C@H](OC)C2)CC(=O)[C@H](C)/C=C(\C)[C@@H](O)[C@@H](OC)C(=O)[C@H](C)C[C@H](C)/C=C/C=C/C=C/1C [TEMSIROLIMUS] | > 30 µM (inactive) | > 30 µM (inactive) | > 30 µM (inactive) | > 30 µM (inactive) | > 30 µM (inactive)
15 | Cn1cnc2c(F)c(Nc3ccc(Br)cc3F)c(C(=O)NOCCO)cc21 [BINIMETINIB] | > 30 µM (inactive) | > 30 µM (inactive) | > 30 µM (inactive) | > 30 µM (inactive) | > 30 µM (inactive)
16 | CCOc1cc2ncc(C#N)c(Nc3ccc(F)c(Cl)c3)c2cc1NC(=O)/C=C/CN(C)C [PELITINIB] | 1.18 µM (active) | > 30 µM (inactive) | > 30 µM (inactive) | > 30 µM (inactive) | > 30 µM (inactive)
17 | O=c1[nH]ccc2cc(OC3CCNCC3)ccc12 [SAR-407899 FREE BASE] | > 30 µM (inactive) | > 30 µM (inactive) | > 30 µM (inactive) | > 30 µM (inactive) | > 30 µM (inactive)
18 | C[C@@H](NC(=O)c1ncnc(N)c1Cl)c1ncc(C(=O)Nc2cc(C(F)(F)F)c(Cl)cn2)s1 [TOVORAFENIB] | > 30 µM (inactive) | > 30 µM (inactive) | > 30 µM (inactive) | > 30 µM (inactive) | > 30 µM (inactive)
19 | Cn1cc(-c2cnn3c(N)c(Br)c([C@@H]4CCCNC4)nc23)cn1 [SCH-900776] | > 30 µM (inactive) | > 30 µM (inactive) | > 30 µM (inactive) | > 30 µM (inactive) | > 30 µM (inactive)
20 | CCn1c(C(=O)N(C2CC2)C2CC2)cc2c3c(ncn3C)c(Nc3cc(C)n(C)n3)nc21 [BMS-911543] | > 30 µM (inactive) | > 30 µM (inactive) | > 30 µM (inactive) | > 30 µM (inactive) | > 30 µM (inactive)
21 | FC(F)(F)c1ccc(/C=C/c2nc(COc3ccc(CCCCn4ccnn4)cc3)co2)cc1 [MUBRITINIB] | > 30 µM (inactive) | > 30 µM (inactive) | > 30 µM (inactive) | > 30 µM (inactive) | > 30 µM (inactive)
